Measurements reported in patent publication US6069177A, “3-Hydroxy-propanamine derived neuronal reuptake inhibitors” (priority 1997, dated 2000).
Like-named read-outs stand apart in the source and are kept apart here.

Key:
[1] = biological target: T1, 5-HT reuptake into rat brain synaptosomes (Rattus norvegicus, UniProt P31652); assay: 5-HT reuptake inhibition in rat brain synaptosomes; type: biochemical, rat (male Sprague-Dawley), cortical tissue; settings: Ki (5-HT)/Ki (compound or drug); Prozac to Serzone derived from literature Ki
T1 construct: A crude synaptosomal (P2) fraction was prepared; tissue Harlan Sprague-Dawley (animals); host or cells: rat cerebral cortex, crude synaptosomal (P2) fraction
T1 sequence (P31652 whole entry): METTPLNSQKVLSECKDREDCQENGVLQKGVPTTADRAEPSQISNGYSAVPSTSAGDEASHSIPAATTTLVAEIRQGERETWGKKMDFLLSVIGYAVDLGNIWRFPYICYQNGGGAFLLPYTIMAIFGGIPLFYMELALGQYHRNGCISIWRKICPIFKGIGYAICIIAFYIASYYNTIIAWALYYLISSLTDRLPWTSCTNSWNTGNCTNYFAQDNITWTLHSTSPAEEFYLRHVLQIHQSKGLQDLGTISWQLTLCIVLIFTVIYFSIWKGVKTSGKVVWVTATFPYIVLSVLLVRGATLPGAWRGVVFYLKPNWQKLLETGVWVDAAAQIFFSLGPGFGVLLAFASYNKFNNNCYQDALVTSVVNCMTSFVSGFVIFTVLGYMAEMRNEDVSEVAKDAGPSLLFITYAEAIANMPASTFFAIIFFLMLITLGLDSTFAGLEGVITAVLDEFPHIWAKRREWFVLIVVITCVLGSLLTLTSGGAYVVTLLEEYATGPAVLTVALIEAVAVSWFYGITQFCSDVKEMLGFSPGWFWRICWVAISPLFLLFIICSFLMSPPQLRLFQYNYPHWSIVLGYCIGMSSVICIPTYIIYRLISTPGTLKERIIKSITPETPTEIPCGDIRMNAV
Method: (§1) Briefly, the tissue was homogenized in 20 volumes of ice-cold 0.32 M sucrose containing 11 mM glucose, pH 7.4 in a glass Potter-Elvehjemhomogenizer with teflon pestle (8 strokes, 900 rpm). The homogenate was centrifuged at 1,000 g for 10 minutes. The resulting supernatant was then centrifuged at 20,000 g for 20 minutes and the supernatent was discarded.
(§2) Briefly, synaptosomal protein (1.0-2.5 mg) was suspended in a total volume of 1 mL containing oxygenated incubation buffer, 10 μM pargyline to inhibit monoamine oxidase activity, 0.2 mg/mL sodium ascorbate and varying concentrations of other compounds or drugs as indicated in the text. […] After a 5 minute preincubation at 37° C. in a shaking water bath (80 oscillations/minute), the uptake was initiated by the addition of […]. The reaction was stopped after 5 minute by adding 4 mL ice-cold 0.9% (w/v) sodium chloride and rapidly filtered through a Whatman GF/B glass fiber filter in a 48-place Brandel cell harvester. The filter was then washed with an additional 8 mL of wash buffer, placed in a scintillation vial containing 5 mL of Redi-Safe (Beckman Instruments, Fullerton, Calif.) and counted. Specific uptake was calculated as the difference between the total uptake (zero unlabelled ligand) and nonspecific uptake (excess unlabelled ligand).

[2] = biological target: T2, NE reuptake into rat brain synaptosomes (Rattus norvegicus, UniProt Q63380); assay: biochemical; design: species or system rat (male Sprague-Dawley), hippocampal tissue
T2 construct: A crude synaptosomal (P2) fraction was prepared; tissue Harlan Sprague-Dawley (animals); host or cells: rat hippocampus, crude synaptosomal (P2) fraction
T2 sequence (Q63380 1-617): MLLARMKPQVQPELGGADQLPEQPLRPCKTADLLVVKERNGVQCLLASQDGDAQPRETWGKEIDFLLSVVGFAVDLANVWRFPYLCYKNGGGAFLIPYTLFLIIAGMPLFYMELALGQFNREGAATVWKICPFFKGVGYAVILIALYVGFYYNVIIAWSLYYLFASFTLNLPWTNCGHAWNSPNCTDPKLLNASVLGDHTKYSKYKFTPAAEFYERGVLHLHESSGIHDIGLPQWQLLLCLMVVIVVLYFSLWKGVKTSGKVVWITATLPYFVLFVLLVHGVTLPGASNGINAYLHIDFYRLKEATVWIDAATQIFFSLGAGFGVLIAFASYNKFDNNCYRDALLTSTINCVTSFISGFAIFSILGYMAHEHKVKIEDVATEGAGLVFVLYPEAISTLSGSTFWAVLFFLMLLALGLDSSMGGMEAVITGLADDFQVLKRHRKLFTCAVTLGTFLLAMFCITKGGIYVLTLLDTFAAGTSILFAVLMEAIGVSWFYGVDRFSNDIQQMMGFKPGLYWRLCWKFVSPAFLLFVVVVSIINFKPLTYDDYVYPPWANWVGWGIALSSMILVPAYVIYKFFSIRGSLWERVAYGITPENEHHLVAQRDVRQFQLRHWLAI

[3] = biological target: T3, DA reuptake into rat brain synaptosomes (Rattus norvegicus, UniProt P23977); assay: DA reuptake inhibition in rat brain synaptosomes; type: biochemical, rat (male Sprague-Dawley), striatal tissue; settings: Ki (DA)/Ki (compound or drug); Prozac to Serzone derived from literature Ki
T3 construct: A crude synaptosomal (P2) fraction was prepared; tissue Harlan Sprague-Dawley (animals); host or cells: rat striatum, crude synaptosomal (P2) fraction
T3 sequence (P23977 whole entry): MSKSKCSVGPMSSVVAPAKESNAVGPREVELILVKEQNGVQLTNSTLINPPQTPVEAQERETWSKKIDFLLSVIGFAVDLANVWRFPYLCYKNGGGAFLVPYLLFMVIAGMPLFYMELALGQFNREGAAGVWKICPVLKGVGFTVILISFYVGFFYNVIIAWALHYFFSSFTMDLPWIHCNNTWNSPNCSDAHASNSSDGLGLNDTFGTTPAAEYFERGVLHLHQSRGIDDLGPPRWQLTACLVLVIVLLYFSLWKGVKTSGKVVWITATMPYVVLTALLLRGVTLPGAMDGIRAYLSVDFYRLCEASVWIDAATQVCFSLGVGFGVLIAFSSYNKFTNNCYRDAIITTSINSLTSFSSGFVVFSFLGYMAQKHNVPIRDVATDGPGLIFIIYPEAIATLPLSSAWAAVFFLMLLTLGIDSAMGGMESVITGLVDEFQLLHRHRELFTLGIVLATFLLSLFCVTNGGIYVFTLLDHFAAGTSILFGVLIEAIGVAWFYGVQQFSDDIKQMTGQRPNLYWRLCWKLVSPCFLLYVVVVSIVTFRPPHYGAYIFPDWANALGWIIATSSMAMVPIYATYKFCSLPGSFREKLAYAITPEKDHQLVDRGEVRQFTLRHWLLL

[4] = tested on: 5-HT, NE and DA reuptake into rat brain synaptosomes; type: biochemical, rat (male Sprague-Dawley)
Method: as §1, §2

[5] = biological target: T4, human serotonin transporter (hSERT) (Homo sapiens, UniProt P31645); type: binding
T4 construct: expressed in transfected cells; membranes of cells expressing the cloned hSERT
T4 sequence (P31645 whole entry): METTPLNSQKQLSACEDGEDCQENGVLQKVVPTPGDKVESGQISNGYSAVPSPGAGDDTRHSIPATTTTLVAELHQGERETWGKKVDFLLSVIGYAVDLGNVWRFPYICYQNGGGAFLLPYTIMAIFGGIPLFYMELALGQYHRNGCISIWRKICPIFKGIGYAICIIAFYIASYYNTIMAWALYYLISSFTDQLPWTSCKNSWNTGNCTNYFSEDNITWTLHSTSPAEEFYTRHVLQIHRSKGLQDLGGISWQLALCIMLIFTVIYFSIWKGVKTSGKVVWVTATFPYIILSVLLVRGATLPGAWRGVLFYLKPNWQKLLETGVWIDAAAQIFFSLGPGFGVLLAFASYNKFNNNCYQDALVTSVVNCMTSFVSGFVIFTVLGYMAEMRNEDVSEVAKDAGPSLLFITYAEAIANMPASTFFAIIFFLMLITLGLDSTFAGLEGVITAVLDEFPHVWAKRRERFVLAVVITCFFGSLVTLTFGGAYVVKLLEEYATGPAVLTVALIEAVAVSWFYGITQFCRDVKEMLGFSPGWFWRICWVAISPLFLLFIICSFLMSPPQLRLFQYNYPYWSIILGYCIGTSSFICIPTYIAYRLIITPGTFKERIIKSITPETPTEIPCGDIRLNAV
Method: (§3) These transporters are responsible for neuronal reuptake of the neurotransmitters.
(§4) Cells were incubated in 10% CO2, 90% air at 37° C. and 100% humidity. The selecting antibiotic geneticin sulfate (250 μg/ml) was used during the cell culture for the hNET only.
(§5) For the preparation of homogenates, medium was removed by aspiration. […] Cells were then scraped from the surface with a rubber spatula into a centrifuge tube and collected by centrifugation at 1000×g for 5 min at 4° C. Supernatants were decanted and the pellet was resuspended in the appropriate binding buffer and homogenized with the use of a Polytron for 10 sec at setting 6. This solution was centrifuged at about 36,000×g for 10 minutes (4° C.). The pellet was suspended in the same volume of buffer and the centrifugation was repeated. The supernatants were decanted and the final pellet was suspended in the appropriate buffer and stored at -80° C. until use.
(§6) For the membranal preparation, cells were homogenized in 50 mM Tris-HCl with 120 mM NaCl and 5 mM KC1 (pH 7.4). […] The reaction mixture was incubated at 22° C. for 30 min. The assay was terminated by rapid filtration of the contents of each tube through a GF/B filter strip, which had been pretreated with 0.2% polyethylenimine, with the use of a 48-well Brandel cell harvester. The filter strips were then rinsed five times with ice-cold 0.9% NaCl. Next, individual filters were cut from the strip and placed in a scintillation vial containing 6.5 mL of Redi-Safe (Beckman Instruments, Fullerton, Calif.). Radioactivity was measured with a Beckman liquid scintillation counter (LS 5000TD).
(§7) The program was modified by the inventors to calculate the Hill Coefficient (nH). […] One-component models and two-component models were compared using the root mean square error of each fit and the F test.

[6] = biological target: human norepinephrine transporter (hNET) (Homo sapiens, UniProt P23975); type: binding
Chain of human norepinephrine transporter (hNET) (P23975 whole entry): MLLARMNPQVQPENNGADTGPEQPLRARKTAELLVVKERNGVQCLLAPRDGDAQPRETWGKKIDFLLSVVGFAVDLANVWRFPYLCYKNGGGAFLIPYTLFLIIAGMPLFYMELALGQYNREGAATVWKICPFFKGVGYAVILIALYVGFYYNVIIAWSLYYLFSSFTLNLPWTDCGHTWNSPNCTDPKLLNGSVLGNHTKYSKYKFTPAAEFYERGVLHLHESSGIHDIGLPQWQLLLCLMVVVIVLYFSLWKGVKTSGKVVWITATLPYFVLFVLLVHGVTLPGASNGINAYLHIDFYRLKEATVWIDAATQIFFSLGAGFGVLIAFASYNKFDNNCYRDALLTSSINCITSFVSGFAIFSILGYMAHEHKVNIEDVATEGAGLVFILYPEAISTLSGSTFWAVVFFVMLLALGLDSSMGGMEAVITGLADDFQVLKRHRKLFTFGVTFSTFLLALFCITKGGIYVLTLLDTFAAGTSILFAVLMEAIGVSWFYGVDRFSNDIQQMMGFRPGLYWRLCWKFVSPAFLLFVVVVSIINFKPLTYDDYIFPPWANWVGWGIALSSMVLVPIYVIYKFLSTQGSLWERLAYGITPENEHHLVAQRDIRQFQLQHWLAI

[7] = biological target: T5, human dopamine transporter (hDAT) (Homo sapiens, UniProt Q01959); assay: [3H]WIN35428 binding to cloned human DAT; settings: Kd (DA)/Kd (compound or drug) in the hDAT binding assay
T5 construct: expressed in transfected cells; membranes of cells expressing the cloned hDAT
T5 sequence (Q01959 whole entry): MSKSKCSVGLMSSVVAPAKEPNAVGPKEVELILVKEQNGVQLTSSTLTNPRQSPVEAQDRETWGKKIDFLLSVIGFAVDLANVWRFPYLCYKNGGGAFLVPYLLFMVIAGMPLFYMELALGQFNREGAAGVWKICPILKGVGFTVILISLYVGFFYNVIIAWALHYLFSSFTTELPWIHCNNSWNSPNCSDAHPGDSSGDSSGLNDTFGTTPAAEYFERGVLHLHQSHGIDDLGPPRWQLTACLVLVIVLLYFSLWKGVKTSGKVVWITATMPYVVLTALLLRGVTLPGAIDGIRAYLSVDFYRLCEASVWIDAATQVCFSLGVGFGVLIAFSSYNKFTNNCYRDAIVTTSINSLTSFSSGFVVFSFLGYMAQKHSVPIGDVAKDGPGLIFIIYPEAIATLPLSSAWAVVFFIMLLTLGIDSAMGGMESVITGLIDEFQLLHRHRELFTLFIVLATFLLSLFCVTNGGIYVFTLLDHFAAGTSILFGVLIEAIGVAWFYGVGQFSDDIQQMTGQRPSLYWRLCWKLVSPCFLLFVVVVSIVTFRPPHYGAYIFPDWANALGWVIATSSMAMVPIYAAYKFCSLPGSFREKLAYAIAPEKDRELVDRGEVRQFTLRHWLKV
Method: as §3, §4, §5
(§8) For the membranal preparation, cells were homogenized in the 50 mM Tris-HCl with 120 mM NaCl (pH 7.4). […] The reaction mixture was incubated at 4° C. for 2 hr. The remaining methods were exactly as described for hSERT above.
as §7

hSERT, hNET, and hDAT = assay: Simultaneous binding to cloned human transporters hSERT, hNET and hDAT
Method: as §3, §4, §5, §6
For the membranal preparation, cells were homogenized in 50 mM Tris-HCl with 300 mM NaCl and 5 mM KCl (pH 7.4). […] The reaction mixture was incubated at 22° C. for 60 min. The remaining methods were exactly as described for hSERT above.
as §8, §7

[8] = biological target: T2, NE reuptake into rat brain synaptosomes; settings: cited from earlier work
[9] = Table 5, comparison of rat and human data

**Q.** With `COc1ccc([C@H](CN(C)C)[C@@H](O)C2CCCCC2)cc1.Cl` (racemic) [Compound E, (2RS,3SR)-3-Cyclohexyl-3-hydroxy-2-(4'-methoxyphenyl)-propyl-N,N-dimethylammonium chloride] as the compound, how does the “5-HT (Rat) Reuptake Inhibition Potency” value [1] read?
**A.** 0.62

**Q.** What about the “NE (Rat) Reuptake Inhibition Potency” value ([2]; Ki (NE)/Ki (compound or drug), Prozac to Serzone derived from literature Ki) of the same compound?
**A.** 0.54

**Q.** And the “DA (Rat) Reuptake Inhibition Potency” value [3]?
**A.** 0.10

**Q.** What about the “Simultaneous Reuptake Inhibition Potency” value [4] of the same compound?
**A.** no

**Q.** And the “Simultaneous Reuptake Inhibition Potency (Rat)” value [4, 9]?
**A.** no

**Q.** And the “hSert Binding Potency” value [5]?
**A.** 70

**Q.** And the “hNet Binding Potency” value ([6]; Kd (NE)/Kd (compound or drug) in the hNET binding assay)?
**A.** 1.24

**Q.** And the “hDAT Binding Potency” value [7]?
**A.** 0.69

**Q.** And the “Simultaneous Transporter Binding Potency” value (hSERT, hNET, and hDAT; Table 4, each of the potency values greater than 7.0)?
**A.** no

**Q.** And the “Simultaneous Transporter Binding Potency (Human)” value (hSERT, hNET, and hDAT; [9])?
**A.** no

**Q.** What does the source list for `Fc1ccc([C@@H]2CCNC[C@H]2COc2ccc3c(c2)OCO3)cc1` [Paxil ®, reference compound]?
**A.** NE (Rat) Reuptake Inhibition Potency [2]: 3.61; Simultaneous Reuptake Inhibition Potency [4]: no; Simultaneous Reuptake Inhibition Potency (Rat) [4]: no; hNet Binding Potency [6]: 55; Ki [8]: 33 ± 2 nM
